*1 amine or outer side, *2 acyl side, *3 side chain or, on linkers, in order; H or OH if unused. Where a SMILES comes first, the peptide text is derived from it. Bridges are numbered along the chain shown (N, C = ends). Roman numbers before positions name the chains, in order. [ ]: non-standard residue; d: D form. The star is where a group is joined. X5 = C#CCOCCOCCOCCOCCN1C[C@@H](C(=O)[*:1])[C@H](C(=O)[*:2])C1; Propargyl(OCH2CH2)4CO = C#CCOCCOCCOCCOCCC(=O)*; azaDab = NCCN(N[*:1])C(=O)[*:2]; Aoc(2) = CCCCCC[C@H](N)C(=O)O; Nle = CCCC[C@H](N)C(=O)O; Dab = NCC[C@H](N)C(=O)O; azaGly = NNC(=O)O
Legend:
[1] = tested on: Ec COL^R LPS: colistin-resistant (MCR-1) strain (AR0349); test: Lethal mouse endotoxemia model (LD95 purified LPS IP); assay type: in vivo, C57BL/6J mice; conditions: (D) Endotoxemia (Ec COL^R LPS); 5 mg/kg IV, single, -1 hr; survival after three days
Experimental: (§1) Studies (B)-(D) shown in Table 22 summarizes the efficacy of compounds in lethal models of endotoxemia. In these models 6 week old C57I/6J immune competent mice (Jackson Laboratory) were challenged IP with purified lipopolysaccharide (LPS) in PBS at an LD95. For all studies, LPS was obtained from Sigma (catalog numbers in the table footnote) or were purified using a kit obtained from iNtRON Biotechnology Inc. (cat #17141). One hour prior to LPS challenge mice were dosed with test articles as indicated (Table 22). The results of these studies indicate that compounds are able to neutralize the lethal effects of LPS in a severe endotoxemia/sepsis model.
End point was survival after 3 days. Ec: E. coli 0111:B34, Sigma cat #L4130; Ab: Acinetobacter baumannii 5075; Kp: Klebsiella pneumonia 10, Sigma cat #L4268; Ng: Neisseria gonorrhoeae 19424; Ec 026:B86, Sigma cat #L2762; Pm: Proteus mirabilis, Sigma cat #SMB00704; Sm: Serratia marcescens, Sigma cat #L6016; Pa: Pseudomonas aeruginosa 10. […] Purified LPS used for all endotoxemia studies and if not denoted by a Sigma catalog number the LPS was purified in-house using an iNtRON #17141 purification kit. *Delayed death, at the time Fc only animals reached 100% mortality all Conjugate 41 mice were still alive.

Ec LPS: E. coli 0111:B4 = test: as above; assay type: in vivo, C57BL/6J mice; conditions: (B) Endotoxemia (Ec LPS); 1 mg/kg IV, single, -1 hr; survival after three days
Experimental: as §1
End point was survival after 3 days. Ec: E. coli 0111:[…] (Sigma cat #L4130); Ab: Acinetobacter baumannii 5075 (iNtRON cat #17141); Ng: Neisseria gonorrhoeae 19424 (iNtRON cat #17141); COL: colistin.
End point was survival after 3 days. Ec: E. coli 0111:B34, Sigma cat #L4130; Ab: Acinetobacter baumannii 5075; Kp: Klebsiella pneumonia 10, Sigma cat #L4268; Ng: Neisseria gonorrhoeae 19424; Ec 026:B86, Sigma cat #L2762; Pm: Proteus mirabilis, Sigma cat #SMB00704; Sm: Serratia marcescens, Sigma cat #L6016; Pa: Pseudomonas aeruginosa 10. […]

In the case of `C#CCOCCOCCOCCOCCN1C[C@@H](C(=O)N[C@@H](CCCC)C(=O)N[C@@H](CCN)C(=O)N[C@H](C(=O)NNC(=O)N[C@H]2CCNC(=O)[C@H]([C@@H](C)O)NC(=O)[C@H](CCN)NC(=O)[C@H](CCN)NC(=O)[C@H](CC(C)C)NC(=O)[C@@H](Cc3ccccc3)NC(=O)[C@H](CCN)NC2=O)[C@@H](C)O)[C@H](C(=O)N[C@@H](CCCC)C(=O)N[C@@H](CCN)C(=O)N[C@H](C(=O)NNC(=O)N[C@H]2CCNC(=O)[C@H]([C@@H](C)O)NC(=O)[C@H](CCN)NC(=O)[C@H](CCN)NC(=O)[C@H](CC(C)C)NC(=O)[C@@H](Cc3ccccc3)NC(=O)[C@H](CCN)NC2=O)[C@@H](C)O)C1` [Int-120] (I: [Nle][Dab]T[azaGly][Dab][Dab][dF]L[Dab][Dab]T / II: [Nle][Dab]T[azaGly][Dab][Dab][dF]L[Dab][Dab]T; lactam I:5-I:C, II:5-II:C; linker I:N-II:N via X5), the “% survival” value [1] was 100%.

For `C#CCOCCOCCOCCOCCC(=O)N[C@@H](CCCCCC)C(=O)N[C@@H](CCN)C(=O)N[C@H](C(=O)NN(CCN)C(=O)N[C@H]1CCNC(=O)[C@H]([C@@H](C)O)NC(=O)[C@H](CCN)NC(=O)[C@H](CCN)NC(=O)[C@H](CC(C)C)NC(=O)[C@@H](Cc2ccccc2)NC(=O)[C@H](CCN)NC1=O)[C@@H](C)O` [Int-129] ({Propargyl(OCH2CH2)4CO}-[Aoc(2)][Dab]T[azaDab][Dab][Dab][dF]L[Dab][Dab]T; lactam 5-C), the “% survival” value (Ec LPS: E. coli 0111:B4) was 100%.

— patent US20230165970A1, “COMPOSITIONS AND METHODS FOR THE TREATMENT OF BACTERIAL INFECTIONS” (priority 2017, published 2023)
